Assay results: patent US7071193B2, “7-amino-2-alkylthiopteridin-4-yl-amines for the treatment of chemokine-related diseases” (AstraZeneca AB, priority 2000, dated 2006)

Structure (SMILES) | melting point [°C]
Nc1cnc2c(NC(CO)CO)nc(SCc3cccc(F)c3F)nc2n1 [Example 2, 2-[[7-amino-2-[[(2,3-difluorophenyl)methyl]thio]-4-pteridinyl]amino]-1,3-propanediol] | 251 to 253
CC[C@H](CO)Nc1nc(SCc2cccc(F)c2F)nc2nc(N)cnc12 [Example 4, (2R)-2-[[7-Amino-2-[[(2,3-difluorophenyl)methyl]thio]-4-pteridinyl]amino]-1-butanol] | 185 to 189
CC(CO)(CO)Nc1nc(SCc2cccc(F)c2F)nc2nc(N)cnc12 [Example 5, 2-[[7-Amino-2-[[(2,3-difluorophenyl)methyl]thio]-4-pteridinyl]amino]-2-methyl-1,3-propanediol] | 220 to 227
C[C@H](CO)Nc1nc(SCc2cccc(Cl)c2F)nc2nc(N)cnc12 [Example 13, (2R)-2-[[7-amino-2-[[(3-chloro-2-fluorophenyl)methyl]thio]-4-pteridinyl]amino]-1-propanol] | 224 to 226
